Measurements published in the NIST ThermoML archive (doi:10.1016/j.jct.2016.09.005).
± gives the expanded uncertainty stated by the source.

Conditions: Fluid (supercritical or subcritical phases), Brillouin Light Scattering

CC(C)OC(C)C [diisopropyl ether]
speed of sound (541.51 K, 6500 kPa): 190.79 ± 4.2 m/s | speed of sound (544.16 K, 3500 kPa): 139.1 ± 2.2 m/s | speed of sound (545.71 K, 4500 kPa): 129.23 ± 2 m/s | speed of sound (546.93 K, 5500 kPa): 147.8 ± 3.2 m/s | speed of sound (547.24 K, 6500 kPa): 183.8 ± 4 m/s | speed of sound (551 K, 3500 kPa): 147.92 ± 2.4 m/s | speed of sound (554.09 K, 4500 kPa): 137.04 ± 2.1 m/s | speed of sound (554.6 K, 5500 kPa): 142.16 ± 2.6 m/s | speed of sound (555.23 K, 6500 kPa): 172.31 ± 3.6 m/s | speed of sound (556.02 K, 3500 kPa): 156.04 ± 2.5 m/s | speed of sound (562.71 K, 3500 kPa): 162.02 ± 2.5 m/s | speed of sound (564.46 K, 4500 kPa): 151.45 ± 2.4 m/s | speed of sound (564.68 K, 5500 kPa): 144.2 ± 2.3 m/s | speed of sound (564.77 K, 6500 kPa): 162.69 ± 2.9 m/s | speed of sound (568.12 K, 3500 kPa): 172.59 ± 2.7 m/s | speed of sound (570.23 K, 4500 kPa): 159.8 ± 2.5 m/s | speed of sound (570.32 K, 6500 kPa): 155.46 ± 2.5 m/s | speed of sound (571.21 K, 5500 kPa): 149.54 ± 2.3 m/s | speed of sound (572.24 K, 3500 kPa): 178.24 ± 2.7 m/s | speed of sound (574.75 K, 6500 kPa): 156.08 ± 2.4 m/s | speed of sound (575.87 K, 4500 kPa): 166.92 ± 2.6 m/s | speed of sound (576.95 K, 5500 kPa): 157.61 ± 2.4 m/s | speed of sound (578.05 K, 3500 kPa): 184.2 ± 2.8 m/s | speed of sound (580.81 K, 6500 kPa): 160.95 ± 2.5 m/s | speed of sound (582.97 K, 4500 kPa): 176.94 ± 2.7 m/s | speed of sound (583.61 K, 3500 kPa): 191.39 ± 2.9 m/s | speed of sound (583.79 K, 5500 kPa): 168.45 ± 2.6 m/s | speed of sound (586.87 K, 6500 kPa): 165.44 ± 2.5 m/s | speed of sound (587.28 K, 5500 kPa): 174.08 ± 2.7 m/s | speed of sound (588.06 K, 4500 kPa): 184.23 ± 2.8 m/s | speed of sound (588.82 K, 3500 kPa): 197.63 ± 3 m/s | speed of sound (591.77 K, 3500 kPa): 201.8 ± 3 m/s | speed of sound (592.03 K, 6500 kPa): 173.69 ± 2.6 m/s | speed of sound (592.07 K, 4500 kPa): 191.01 ± 2.9 m/s | speed of sound (592.51 K, 5500 kPa): 179.58 ± 2.8 m/s | speed of sound (595.88 K, 6500 kPa): 181.47 ± 2.7 m/s | speed of sound (597.6 K, 4500 kPa): 197.93 ± 2.9 m/s | speed of sound (597.6 K, 5500 kPa): 185.96 ± 2.8 m/s | speed of sound (597.62 K, 3500 kPa): 207.01 ± 3 m/s | speed of sound (602.12 K, 3500 kPa): 213.74 ± 3.1 m/s | speed of sound (602.56 K, 4500 kPa): 203.87 ± 3 m/s | speed of sound (603.22 K, 6500 kPa): 189.62 ± 2.8 m/s | speed of sound (603.37 K, 5500 kPa): 196.7 ± 3 m/s | speed of sound (607.19 K, 4500 kPa): 209.92 ± 3.1 m/s | speed of sound (607.26 K, 5500 kPa): 201.24 ± 3 m/s | speed of sound (608.3 K, 3500 kPa): 220.34 ± 3.2 m/s | speed of sound (608.98 K, 6500 kPa): 198.69 ± 3 m/s | speed of sound (612.23 K, 3500 kPa): 223.95 ± 3.3 m/s | speed of sound (612.23 K, 4500 kPa): 214.66 ± 3.1 m/s | speed of sound (612.33 K, 5500 kPa): 208.84 ± 3.1 m/s | speed of sound (612.73 K, 6500 kPa): 201.04 ± 3 m/s | speed of sound (617.47 K, 4500 kPa): 220.52 ± 3.2 m/s | speed of sound (618 K, 3500 kPa): 231.2 ± 3.4 m/s | speed of sound (618.05 K, 5500 kPa): 215.78 ± 3.2 m/s | speed of sound (618.31 K, 6500 kPa): 208.27 ± 3.1 m/s | speed of sound (622.27 K, 3500 kPa): 235.81 ± 3.4 m/s | speed of sound (623.05 K, 5500 kPa): 219.38 ± 3.2 m/s | speed of sound (623.51 K, 4500 kPa): 226.31 ± 3.3 m/s | speed of sound (623.75 K, 6500 kPa): 213.55 ± 3.2 m/s | speed of sound (626.85 K, 5500 kPa): 224.98 ± 3.3 m/s | speed of sound (627.63 K, 6500 kPa): 217.44 ± 3.2 m/s | speed of sound (627.65 K, 3500 kPa): 240.7 ± 3.5 m/s | speed of sound (628.55 K, 4500 kPa): 231.82 ± 3.4 m/s | speed of sound (632.23 K, 4500 kPa): 235.83 ± 3.4 m/s | speed of sound (632.72 K, 5500 kPa): 227.82 ± 3.4 m/s | speed of sound (632.86 K, 3500 kPa): 243.95 ± 3.5 m/s | speed of sound (633.54 K, 6500 kPa): 221.63 ± 3.3 m/s | speed of sound (637.16 K, 6500 kPa): 225.18 ± 3.3 m/s | speed of sound (638.22 K, 3500 kPa): 249.88 ± 3.6 m/s | speed of sound (638.59 K, 4500 kPa): 240.88 ± 3.5 m/s | speed of sound (638.75 K, 5500 kPa): 232.85 ± 3.4 m/s | speed of sound (642.34 K, 6500 kPa): 228.66 ± 3.4 m/s | speed of sound (643.55 K, 4500 kPa): 245.98 ± 3.6 m/s | speed of sound (643.72 K, 3500 kPa): 254.88 ± 3.7 m/s | speed of sound (644.35 K, 5500 kPa): 237.43 ± 3.5 m/s | speed of sound (648.15 K, 5500 kPa): 239.71 ± 3.5 m/s | speed of sound (648.16 K, 6500 kPa): 231.72 ± 3.4 m/s | speed of sound (648.36 K, 3500 kPa): 257.88 ± 3.7 m/s | speed of sound (648.6 K, 4500 kPa): 250.01 ± 3.6 m/s | speed of sound (652.25 K, 4500 kPa): 253.58 ± 3.7 m/s | speed of sound (652.83 K, 5500 kPa): 244.43 ± 3.6 m/s | speed of sound (653.38 K, 3500 kPa): 263.46 ± 3.8 m/s | speed of sound (653.97 K, 6500 kPa): 236.88 ± 3.5 m/s | speed of sound (657.92 K, 5500 kPa): 246.91 ± 3.6 m/s | speed of sound (658.37 K, 4500 kPa): 256.34 ± 3.7 m/s | speed of sound (658.49 K, 6500 kPa): 239.95 ± 3.5 m/s | speed of sound (658.61 K, 3500 kPa): 265.77 ± 3.8 m/s | speed of sound (662.18 K, 5500 kPa): 249.76 ± 3.7 m/s | speed of sound (662.28 K, 4500 kPa): 259.34 ± 3.7 m/s | speed of sound (663.04 K, 6500 kPa): 242.15 ± 3.5 m/s | speed of sound (664.11 K, 3500 kPa): 269.84 ± 3.9 m/s | speed of sound (667.5 K, 5500 kPa): 252.59 ± 3.7 m/s | speed of sound (667.83 K, 4500 kPa): 264.18 ± 3.8 m/s | speed of sound (667.84 K, 6500 kPa): 245.05 ± 3.6 m/s | speed of sound (668.59 K, 3500 kPa): 271.89 ± 3.9 m/s | speed of sound (670.57 K, 5500 kPa): 254.53 ± 3.7 m/s | speed of sound (671.41 K, 6500 kPa): 247.45 ± 3.6 m/s | speed of sound (672.38 K, 4500 kPa): 265.43 ± 3.8 m/s | speed of sound (672.56 K, 3500 kPa): 274.52 ± 3.9 m/s
